Holding throughout (assay type): cell-based
In assay [1] the target is T1, CFTR ΔF508 mutant (Homo sapiens, UniProt P13569, DEL508-508).
T1 construct: expressed in transfected cells; host or cells: CFBE41o- (adenoviral transduction)
Briefly: YFP-halide influx assay for the CFTR-ΔF508 mutation, PBS buffer (96 well). The note with it: CFBE41o- cells, forskolin 10.67 μM. The source says:
The YFP halide influx assay measures the functionality of the cystic fibrosis Transmembrane Conductance regulator (CFTR) channels in the cystic fibrosis bronchial epithelium cell line CFBE41o-. The assay is used to evaluate the capacity of compounds to increase the open probability of existing CFTR channels in the membrane. It makes use of the observation that the yellow fluorescent protein (YFP) variant YFP H148Q, I152L has its fluorescence substantially quenched by halide ions like Cl^− and I^−. (Galietta, Haggie, & Verkman, 2001) (Nagai, et al., 2002)
For this purpose, CFBE41o-cells are seeded in 96 well plates (6000 CFBE cells/well). One day after seeding, the CFBE cells are transduced with adenoviral vectors that direct the expression of the CFTR ΔF508 mutant and of the YFP reporter. Cells are incubated at 27° C., 5% CO2 for 24 hours so as to allow for the proper folding and migration to the membrane of the CFTR channel or treated with a CFTR modulator during 24 hours at 37° C.
The I^− induced quenching of fluorescence is recorded immediately after injection of I^− for 7 seconds. The capacity of a compound to increase the channel opening is directly correlated with the decrease in fluorescence, and is expressed as (1-(fluorescence after 7 seconds (F)/fluorescence before injection (F0))) and an EC50 can be derived from a (1-F/F0) vs compound concentration plot.

The target of assay [2] is T2, CFTR G551D mutant (Homo sapiens, UniProt P13569, G551D).
T2 construct: expressed in transfected cells; host or cells: HEK293 (reverse transfection with plasmid)
T2 sequence (P13569 whole entry G551D): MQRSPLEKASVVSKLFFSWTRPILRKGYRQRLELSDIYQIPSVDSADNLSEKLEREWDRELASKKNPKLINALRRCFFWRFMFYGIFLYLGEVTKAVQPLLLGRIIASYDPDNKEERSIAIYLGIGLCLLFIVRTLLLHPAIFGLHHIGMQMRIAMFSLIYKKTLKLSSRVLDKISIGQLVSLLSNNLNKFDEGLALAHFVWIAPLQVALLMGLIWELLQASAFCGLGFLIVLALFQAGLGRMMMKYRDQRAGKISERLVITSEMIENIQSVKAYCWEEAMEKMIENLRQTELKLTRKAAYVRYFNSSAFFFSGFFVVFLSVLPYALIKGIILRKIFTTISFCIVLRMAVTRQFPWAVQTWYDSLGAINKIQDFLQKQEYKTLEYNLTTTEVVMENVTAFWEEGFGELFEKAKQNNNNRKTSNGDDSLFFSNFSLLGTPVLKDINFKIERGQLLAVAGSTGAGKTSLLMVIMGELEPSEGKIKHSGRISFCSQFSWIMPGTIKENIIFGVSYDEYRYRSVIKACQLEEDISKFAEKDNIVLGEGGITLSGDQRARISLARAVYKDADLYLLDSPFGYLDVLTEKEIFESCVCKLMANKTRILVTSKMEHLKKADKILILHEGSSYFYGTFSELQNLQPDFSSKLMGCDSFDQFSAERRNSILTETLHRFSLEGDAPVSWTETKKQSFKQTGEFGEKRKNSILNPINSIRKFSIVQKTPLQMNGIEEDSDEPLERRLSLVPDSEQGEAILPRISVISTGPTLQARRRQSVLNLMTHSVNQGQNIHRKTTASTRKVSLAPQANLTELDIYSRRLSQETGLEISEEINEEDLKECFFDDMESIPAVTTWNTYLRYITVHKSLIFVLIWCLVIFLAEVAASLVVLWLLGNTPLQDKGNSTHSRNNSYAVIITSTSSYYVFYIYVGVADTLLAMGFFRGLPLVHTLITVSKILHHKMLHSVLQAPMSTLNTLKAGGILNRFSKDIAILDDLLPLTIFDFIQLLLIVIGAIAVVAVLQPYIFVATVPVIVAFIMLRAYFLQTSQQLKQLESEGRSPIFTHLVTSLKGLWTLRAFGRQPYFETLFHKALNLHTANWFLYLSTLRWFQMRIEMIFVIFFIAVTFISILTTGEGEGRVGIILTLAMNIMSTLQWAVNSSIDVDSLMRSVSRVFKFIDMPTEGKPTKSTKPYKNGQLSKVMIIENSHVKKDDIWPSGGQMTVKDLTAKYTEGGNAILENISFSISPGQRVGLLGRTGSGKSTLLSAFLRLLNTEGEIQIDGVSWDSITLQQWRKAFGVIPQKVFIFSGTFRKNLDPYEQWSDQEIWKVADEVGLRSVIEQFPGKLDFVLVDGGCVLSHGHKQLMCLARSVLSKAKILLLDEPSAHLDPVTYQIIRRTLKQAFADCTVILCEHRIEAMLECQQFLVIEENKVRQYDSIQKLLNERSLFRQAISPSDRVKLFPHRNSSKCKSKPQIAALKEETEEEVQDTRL
Briefly: YFP-halide influx assay for the CFTR-G551D mutation. The note with it: HEK293 cells, forskolin 10.67 μM. The gist of the method:
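HEK293 cells reverse-transfected with CFTR G551D and YFP H148Q/I152L/F47L halide sensor, expressed 24 h at 37 °C. Iodide-induced fluorescence quench recorded 7 s after I− injection; response = 1−F/F0, with EC50 from plot against compound concentration.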

In assay [3] the target is T1, CFTR ΔF508 mutant. Briefly: YFP-halide influx assay for the CFTR-ΔF508 mutation (384 well, FDSS/μCell). The note with it: CFBE41o- cells, CFTR-ΔF508, 1×D-PBS, fluorescence after 36 seconds. The gist of the method:
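Potentiator read-out as 1−F/F0, F taken 36 s after iodide addition, EC50 fitted against compound concentration. Cells: CFBE41o- expressing ΔF508 CFTR plus halide-sensitive YFP via adenovirus, rescued by 27 °C for 24 h or 24 h modulator at 37 °C.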

Assay [4] deals with T1, CFTR ΔF508 mutant. Briefly: YFP-halide influx assay for the CFTR-ΔF508 mutation, gluconate buffer. Particulars: CFBE41o- cells, forskolin 10.67 μM. The gist of the method: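 CFBE41o- cells adenovirally transduced with CFTR ΔF508 and YFP H148Q/I152L, then held 24 h at 27 °C or treated with CFTR modulator 24 h at 37 °C. I− quenching recorded for 7 s after injection; activity as 1-F/F0, EC50 from concentration plot.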

As a reminder, the pEC50 is −log10 of the EC50, conventionally taken in molar units. A lower pEC50 goes with a high EC50.

pEC50: −log10 of the molar value.

T1 sequence (P13569 with tags, fused parts or gaps DEL508-508): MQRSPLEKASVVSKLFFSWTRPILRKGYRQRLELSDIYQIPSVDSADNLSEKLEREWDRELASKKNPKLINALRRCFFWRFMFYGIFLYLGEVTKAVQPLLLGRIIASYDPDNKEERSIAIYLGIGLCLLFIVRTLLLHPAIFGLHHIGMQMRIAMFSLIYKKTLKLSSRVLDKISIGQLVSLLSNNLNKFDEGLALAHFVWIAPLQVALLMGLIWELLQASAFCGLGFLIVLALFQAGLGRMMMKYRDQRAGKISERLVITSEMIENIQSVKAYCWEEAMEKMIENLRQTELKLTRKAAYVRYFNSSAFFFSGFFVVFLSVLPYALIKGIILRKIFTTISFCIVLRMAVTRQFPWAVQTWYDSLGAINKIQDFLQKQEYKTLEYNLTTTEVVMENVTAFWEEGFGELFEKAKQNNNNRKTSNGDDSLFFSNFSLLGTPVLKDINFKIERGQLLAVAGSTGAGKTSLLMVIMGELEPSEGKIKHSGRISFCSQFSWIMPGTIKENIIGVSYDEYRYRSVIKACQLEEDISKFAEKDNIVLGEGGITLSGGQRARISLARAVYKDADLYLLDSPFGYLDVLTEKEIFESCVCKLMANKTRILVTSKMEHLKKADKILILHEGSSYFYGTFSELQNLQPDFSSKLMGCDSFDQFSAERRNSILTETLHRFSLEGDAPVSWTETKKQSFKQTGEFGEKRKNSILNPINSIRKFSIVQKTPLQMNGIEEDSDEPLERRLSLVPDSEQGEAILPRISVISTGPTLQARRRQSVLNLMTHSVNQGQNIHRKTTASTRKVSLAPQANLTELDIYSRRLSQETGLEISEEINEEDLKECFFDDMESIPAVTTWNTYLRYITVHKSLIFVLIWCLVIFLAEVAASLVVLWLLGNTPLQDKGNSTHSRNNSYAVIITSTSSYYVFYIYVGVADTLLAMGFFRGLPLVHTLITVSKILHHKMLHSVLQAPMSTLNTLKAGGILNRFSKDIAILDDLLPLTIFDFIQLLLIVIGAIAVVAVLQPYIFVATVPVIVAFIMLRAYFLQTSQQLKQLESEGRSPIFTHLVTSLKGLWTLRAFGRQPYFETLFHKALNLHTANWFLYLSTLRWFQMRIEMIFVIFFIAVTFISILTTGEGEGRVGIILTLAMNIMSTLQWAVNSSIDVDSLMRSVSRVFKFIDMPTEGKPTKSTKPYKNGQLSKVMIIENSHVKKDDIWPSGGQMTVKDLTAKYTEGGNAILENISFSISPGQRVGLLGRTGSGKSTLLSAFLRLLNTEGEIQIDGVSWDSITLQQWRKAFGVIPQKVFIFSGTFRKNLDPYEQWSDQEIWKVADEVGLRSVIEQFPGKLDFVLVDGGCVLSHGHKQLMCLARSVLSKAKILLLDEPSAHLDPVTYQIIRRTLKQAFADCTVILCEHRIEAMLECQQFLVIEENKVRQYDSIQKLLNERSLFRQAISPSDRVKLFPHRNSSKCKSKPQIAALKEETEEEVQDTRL

In turn, `CC1CN(S(=O)(=O)c2cc(C(N)=O)c(NC(=O)C3(O)CC3)s2)CC(C)O1` (stereo not drawn) [Compound 238, 5-(2,6-dimethylmorpholinosulfonyl)-2-(1-hydroxycyclopropanecarboxamido) thiophene-3-carboxamide] had a pEC50 in assay [1] of 6.65.

Regarding `CC(=O)OC(C)(C)C(=O)Nc1sc(S(=O)(=O)c2ccccc2C(C)C)cc1C(N)=O` [Compound 294, 1-(3-carbamoyl-5-(2-isopropylphenylsulfonyl)thiophen-2-ylamino)-2-methyl-1-oxopropan-2-yl acetate], the pEC50 was 6.64 in assay [1] and 5.88 in assay [2].

`NC(=O)c1cc(S(=O)(=O)c2ccc(F)cc2)sc1NC(=O)C1COCCO1` (stereo not drawn) [Compound 277, N-(3-carbamoyl-5-(4-fluorophenylsulfonyl)thiophen-2-yl)-1,4-dioxane-2-carboxamide]: the figures for the pEC50 in assay [1] and in assay [2] were 6.41 and 5.48, respectively.

On to `CC1(C)COCCN1S(=O)(=O)c1cc(C(N)=O)c(NC(=O)c2ccccc2C(F)(F)F)s1` [Compound 260, 5-(3,3-dimethylmorpholinosulfonyl)-2-(2-(trifluoromethyl)benzamido) thiophene-3-carboxamide], for which the pEC50 was 7.03 in assay [1] and 7.06 in assay [3].

For the molecule `COCCN(C1CC1)S(=O)(=O)c1cc(C(N)=O)c(NC(=O)c2ccccc2C(F)(F)F)s1` [Compound 261, 5-(N-cyclopropyl-N-(2-methoxyethyl)sulfamoyl)-2-(2-(trifluoromethyl)benzamido) thiophene-3-carboxamide], the pEC50 in assay [1] was 7.50; in assay [3], 7.03.

With `COc1ccc(CN(C)S(=O)(=O)c2cc(C(N)=O)c(NC(=O)C3(O)CC3)s2)cc1` [Compound 235, 2-(1-hydroxycyclopropanecarboxamido)-5-(N-(4-methoxybenzyl)-N-methylsulfamoyl) thiophene-3-carboxamide], the pEC50 in assay [1] is 7.33; in assay [3], 7.12.

On to `CN(C1CC1)S(=O)(=O)c1cc(C(N)=O)c(NC(=O)c2ccccc2C(F)(F)F)s1` [Compound 262, 5-(N-cyclopropyl-N-methylsulfamoyl)-2-(2-(trifluoromethyl)benzamido) thiophene-3-carboxamide], for which the figures for the negative-log EC50 (pEC50) in assay [1] and in assay [3] were 7.16 and 6.94, respectively.

For the molecule `CC1COCC(C)N1S(=O)(=O)c1cc(C(N)=O)c(NC(=O)c2ccccc2C(F)(F)F)s1` (stereo not drawn) [Compound 259, 5-(3,5-dimethylmorpholinosulfonyl)-2-(2-(trifluoromethyl)benzamido) thiophene-3-carboxamide], in assay [1], the pEC50 was 6.84.

For `NC(=O)c1cc(S(=O)(=O)c2ccc(F)cc2)sc1NC(=O)C(O)C(F)(F)F` (stereo not drawn) [Compound 252, 5-(4-fluorophenylsulfonyl)-2-(3,3,3-trifluoro-2-hydroxypropanamido) thiophene-3-carboxamide], the results for the pEC50 in assay [1] and in assay [2] were 7.31 and 6.67, respectively.

In assay [1], `NC(=O)c1cc(S(=O)(=O)c2ccc(F)cc2)sc1Nc1ccccn1` [Compound 267, 5-(4-fluorophenylsulfonyl)-2-(pyridin-2-ylamino) thiophene-3-carboxamide] showed a pEC50 of 6.19.

With `CC1(C)CN(S(=O)(=O)c2cc(C(N)=O)c(NC(=O)C(C)(C)O)s2)C1` [Compound 309, 5-(3,3-Dimethyl-azetidine-1-sulfonyl)-2-(2-hydroxy-2-methyl-propionylamino)-thiophene-3-carboxylic acid amide], the pEC50 in assay [1] is 6.94; in assay [2], 5.54.

For the molecule `COCCN(C1CC1)S(=O)(=O)c1cc(C(N)=O)c(NC(=O)C2(O)CC2)s1` [Compound 244, 5-(N-cyclopropyl-N-(2-methoxyethyl)sulfamoyl)-2-(1-hydroxycyclopropanecarboxamido) thiophene-3-carboxamide], in assay [1], the pEC50 was 6.82.

In assay [1], `CC(C)=CC(=O)Nc1sc(S(=O)(=O)c2ccc(F)cc2)cc1C(N)=O` [Compound 274, 5-(4-fluorophenylsulfonyl)-2-(3-methylbut-2-enamido) thiophene-3-carboxamide] gave a pEC50 of 6.64.

`NC(=O)c1cc(S(=O)(=O)c2ccc(F)cc2)sc1NC(=O)c1ccc(F)cn1` [Compound 266, N-(3-carbamoyl-5-(4-fluorophenylsulfonyl)thiophen-2-yl)-5-fluoropicolinamide] gave a pEC50 in assay [1] of 6.71.

Turning to `COCCC(=O)Nc1sc(S(=O)(=O)c2ccc(F)cc2)cc1C(N)=O` [Compound 229, 5-(4-fluorophenylsulfonyl)-2-(3-methoxypropanamido) thiophene-3-carboxamide], in assay [1], the pEC50 is 5.51.

Molecule `CC1(C)COCCN1S(=O)(=O)c1cc(C(N)=O)c(NC(=O)C2(O)CC2)s1` [Compound 241, 5-(3,3-dimethylmorpholinosulfonyl)-2-(1-hydroxycyclopropanecarboxamido) thiophene-3-carboxamide] showed a pEC50 in assay [1] of 6.61.

As for `NC(=O)c1cc(S(=O)(=O)c2ccc(F)cc2)sc1NC(=O)c1ccnnc1` [Compound 250, N-(3-carbamoyl-5-(4-fluorophenylsulfonyl)thiophen-2-yl) pyridazine-4-carboxamide], in assay [1], the pEC50 is under 6.00.

Take `COC1CN(S(=O)(=O)c2cc(C(N)=O)c(NC(=O)C3(O)CC3)s2)C1` [Compound 243, 2-(1-hydroxycyclopropanecarboxamido)-5-(3-methoxyazetidin-1-ylsulfonyl)thiophene-3-carboxamide]: in assay [1], the pEC50 is 5.79.

In turn, `COC1CCN(S(=O)(=O)c2cc(C(N)=O)c(NC(=O)C3(O)CC3)s2)CC1` [Compound 239, 2-(1-hydroxycyclopropanecarboxamido)-5-(4-methoxypiperidin-1-ylsulfonyl)thiophene-3-carboxamide] showed a pEC50 in assay [1] of 6.53.

Consider `CC1CN(S(=O)(=O)c2cc(C(N)=O)c(NC(=O)c3ccccc3C(F)(F)F)s2)CC(C)O1` (stereo not drawn) [Compound 258, 5-(2,6-dimethylmorpholinosulfonyl)-2-(2-(trifluoromethyl)benzamido) thiophene-3-carboxamide], for which the pEC50 in assay [1] was 6.99; in assay [3] it was 6.80.

Turning to `NC(=O)c1cc(S(=O)(=O)c2ccc(F)cc2)sc1NC(=O)c1cccnn1` [Compound 249, N-(3-carbamoyl-5-(4-fluorophenylsulfonyl)thiophen-2-yl)pyridazine-3-carboxamide], the pEC50 in assay [1] is 5.54.

Take `CC1COCC(C)N1S(=O)(=O)c1cc(C(N)=O)c(NC(=O)C2(O)CC2)s1` (stereo not drawn) [Compound 234, 5-(3,5-dimethylmorpholinosulfonyl)-2-(1-hydroxycyclopropanecarboxamido) thiophene-3-carboxamide]: the pEC50 in assay [1] is 6.55.

`COC(C)(C)C(=O)Nc1sc(S(=O)(=O)c2ccc(F)cc2)cc1C(N)=O` [Compound 268, 5-(4-fluorophenylsulfonyl)-2-(2-methoxy-2-methylpropanamido) thiophene-3-carboxamide]: the pEC50 in assay [1] was 6.71.

For the molecule `CC1CN(S(=O)(=O)c2cc(C(N)=O)c(NC(=O)C3(O)CC3)s2)CCO1` (stereo not drawn) [Compound 240, 2-(1-hydroxycyclopropanecarboxamido)-5-(2-methylmorpholinosulfonyl) thiophene-3-carboxamide], the pEC50 in assay [1] is 6.21.

For the molecule `NC(=O)c1cc(S(=O)(=O)c2ccc(F)cc2)sc1NC(=O)c1cccnc1F` [Compound 230, N-(3-carbamoyl-5-(4-fluorophenylsulfonyl)thiophen-2-yl)-2-fluoronicotinamide], the pEC50 in assay [1] is 6.01.

As to `CC(C)N(c1ccc(F)cc1)S(=O)(=O)c1cc(C(N)=O)c(NC(=O)C2(O)CC2)s1` [Compound 237, 5-(N-(4-fluorophenyl)-N-isopropylsulfamoyl)-2-(1-hydroxycyclopropanecarboxamido) thiophene-3-carboxamide], the pEC50 in assay [1] is 7.18; in assay [3], 6.97.

Regarding `CC(C)S(=O)(=O)c1cc(C(N)=O)c(NC(=O)c2ccccc2O)s1` [Compound 197, 2-(2-hydroxybenzaido)-5-(isopropylsulfonyl) thiophene-3-carboxamide], the pEC50 was 7.04 in assay [4], 7.61 in assay [3] and 6.80 in assay [2].

(Values after patent publication US9382254B2, “Compounds and pharmaceutical compositions thereof for the treatment of cystic fibrosis” (Galapagos NV, priority 2013, dated 2016).)
